Test results as given in paper PMC6399351, “Cationic Intrinsically Disordered Antimicrobial Peptides (CIDAMPs) Represent a New Paradigm of Innate Defense with a Potential for Novel Anti-Infectives” (Scientific Reports, 2019).
Read-outs that look alike come from different tables or passages of the source. Square brackets hold non-standard residues; d marks the D form. Ends that are not written are not given here. Peptide text beside a SMILES is read from it.

Tested on: P. aeruginosa ATCC 10145
Conditions: CFU assay, 10 mM NaP

Row | Compound | LD90 (pH 5.5, 0.25% glucose) [µg/mL] | LD100 (pH 5.5, 0.25% glucose) [µg/mL] | LD100 (pH 5.5, 1% TSB) [µg/mL] | LD90 (pH 5.5, 1% TSB) [µg/mL]
1 | CC(C)C[C@@H](NC(=O)CNC(=O)[C@@H](CO)NC(=O)CNC(=O)[C@@H](Cc1c[nH]cn1)NC(=O)[C@@H](CCCNC(=N)N)NC(=O)CN)C(=O)NCC(=O)N[C@H](Cc1c[nH]cn1)C(=O)N[C@H](CO)C(=O)N[C@H](CO)C(=O)N[C@H](CO)C(=O)N[C@H](Cc1c[nH]cn1)C(=O)NCC(=O)N[C@H](CCC(N)=O)C(=O)N[C@H](Cc1c[nH]cn1)C(=O)NCC(=O)N[C@H](CO)C(=O)NCC(=O)N[C@H](CO)C(=O)NCC(=O)N[C@H](CCCNC(=N)N)C(=O)O [(D)HR 1-18] (H-G[dR][dH]G[dS]G[dL]G[dH][dS][dS][dS][dH]G[dQ][dH]G[dS]G[dS]G[dR]-OH; N-terminus and C-terminus assumed) | 0.038 | 0.3 | – | –
2 | GGHGSGLGHSSSHGQHGSGSGRSSSRGPY [HR 1-17R1-G] | 0.038 | 0.3 | – | –
3 | GRGGSGLGGSSSGGQGGSGSGRSSSRGPY [HR 1-174H-4G] | 75 | > 300 | – | –
4 | GRHGGGGGHGGGHGGHGGGGGR [HR 1-18,L-G/Q-G/6S-6G] | – | 0.15 | – | –
5 | GRHGSGGGHSSSHGGHGSGSGR [HR 1-18,L-G/Q-G] | – | 0.15 | – | –
6 | GRHGSGLGHSSSH [HR 1-37] | 9.38 | > 300 | – | –
7 | GRHGSGLGHSSSHGQH [HR 1-25] | 0.3 | 4.7 | – | –
8 | GRHGSGLGHSSSHGQHGSGSGGSSSRGPY [HR 1-17R2-G] | 0.038 | 0.15 | – | –
9 | GRHGSGLGHSSSHGQHGSGSGRSSSGGPY [HR 1-17R3-G] | 0.038 | 0.15 to 0.3 | – | –
10 | GRHGSGSGHSSSHGQHGSGSGR [HRNR2186-2207] | – | 4.7 to 9.37 | – | –
11 | GRHGSGSGQSSSYGPYGSGSGWSSSRGPY [HRNR1952-1980] | – | – | > 300 | –
12 | GRHGSGSGQSSSYGPYRSGSGWSSSRGPY [HRNR1013-1041] | – | – | > 300 | –
13 | GRHGSGSGQSSSYSPYGSGSGWSSSR [HRNR2422-2447] | – | – | > 300 | –
14 | GRHGSGSGQSSSYSPYGSGSGWSSSRGPY [HRNR2422-2450] | – | – | > 300 | 2.35
15 | GSGSRQSLSYGRHGSGSGR [HR 2-4L] | – | – | > 300 | 75
16 | GSGSRQSPSHGRHGSGSGR [HR 2-4H] | – | – | > 300 | 75
17 | GSGSRQSPSRGRHGSGSGR [HR 2-4R] | – | – | > 300 | –
18 | GSGSRQSPSY [HR 2-2] | – | – | > 300 | > 300
19 | GSGSRQSPSYGR [HR 2-8] | – | – | > 300 | 37.5
20 | GSGSRQSPSYGRHGSGSGR [HR 2-4] | – | – | > 300 | > 300
21 | GSGSRQSPSYGRHGSGSGRSSSSGQH [HR 2-11] | – | – | > 300 | 37.5

Row | Compound | LD90 (pH 5.5, 0.25% glucose) [µg/mL] | LD100 (pH 5.5, 0.25% glucose) [µg/mL] | LD100 (pH 5.5, 1% TSB) [µg/mL] | LD90 (pH 5.5, 1% TSB) [µg/mL]
22 | GSGSRQSPSYGRQGSGSGR [HR 2-4Q] | – | – | > 300 | > 300
23 | GSGSRQSSGHGRQGSGSGQ [HR 1-16] | – | – | > 300 | > 300
24 | GSGSRQSSSYGRHGSGSGR [HR 2-4S] | – | – | > 300 | 150
25 | GSRQSPSYGRHGSGSGR [HR 2-12] | – | – | > 300 | > 300
26 | GSRTAGRRGSGH [FLG-22094-2105] | – | > 300 | – | –
27 | HAHSGHGQSTQR [FLG-22082-2093] | 0.15 | 2.35 | – | –
28 | HAHSGHGQSTQRGSR [FLG-22082-2096] | 0.15 | 1.18 | – | –
29 | HAHSGHGQSTQRGSRTAGRRGSGH [FLG-22082-2105] | < 0.038 | 0.075 | – | –
30 | HAHYGYGQSTQRGSRTTGRRGSGH [FLG-22232-2255] | 0.075 | 0.59 | – | –
31 | HGQSTQRGSRTAGRRGSGH [FLG-22087-2105] | 0.075 | 1.18 | – | –
32 | HGSGLGHSSSHGQHGSGSGR [HR 1-8] | 4.7 | > 300 | > 300 | –
33 | HGSGSGR [HR 2-9] | – | – | > 300 | > 300
34 | HGSRSGQSSRGERHGSSSGSSSH [HR 1-11] | 0.075 | – | – | –
35 | HGSSSGSSSHYGQHGSGSR [HR 1-4] | – | – | > 300 | 150
36 | HSQRGSGSRQSPSYGRH [HR 2-16] | – | 37.5 | – | –
37 | HSSSHGQHGSGSGR [HR 1-38] | – | > 300 | – | –
38 | HTHSGHAHGQAGSQHGESGSSVHER [FLG-22044-2068] | 0.038 | 0.3 | – | –
39 | HTHSGHTHGQAGSHYPESGSSVHER [FLG-21969-1993] | 0.038 | 0.3 | – | –
40 | HTHSGHTHGQARSQHGESESIVHER [FLG-21742-1766] | 0.038 | 0.15 | – | –
41 | HTHSGHTHGQSGSQHGESESIIHDR [FLG-21515-1539] | 0.075 | 0.59 | – | –
42 | HTHSGHTHSQARSQHGESESTVHKR [FLG-21894-1918] | 0.038 | 0.3 | – | –

Row | Compound | LD90 (pH 5.5, 0.25% glucose) [µg/mL] | LD100 (pH 5.5, 0.25% glucose) [µg/mL] | LD100 (pH 5.5, 1% TSB) [µg/mL] | LD90 (pH 5.5, 1% TSB) [µg/mL]
43 | LGHSSSHGQHGSGSGRSSSRGPYESRLGH [HR 1-36] | 0.15 | 2.35 | – | –
44 | QGSGSGQSPGHSQRGSGSRQSPSY [HR 2-1] | – | – | > 300 | > 300
45 | QGSGSGQSPSR [HR 1-6] | – | – | > 300 | > 300
46 | QGSGSGQSPSRGR [HR 1-7] | – | – | > 300 | > 300
47 | QSPSY [HR 2-3] | – | – | > 300 | > 300
48 | QSPSYGR [HR 2-6] | – | – | > 300 | > 300
49 | QSPSYGRHGSGSGR [HR 2-5] | – | – | > 300 | > 300
50 | QSSGHGR [HR 1-5] | – | – | > 300 | > 300
51 | RGSGSGHQGHSSSHGLGSGHRG [rev-HR 1-18] | < 0.019 | 0.3 | – | –
52 | RQSPSYGRHGSGSGR [HR 2-14] | – | – | > 300 | 300
53 | SGQSSR [HR 1-2] | – | – | > 300 | > 300
54 | SGQSSRGER [HR 1-3] | – | – | > 300 | > 300
55 | SLSSGHGSGHGHQRGGHRSGSG [scr-HR 1-18] | < 0.019 | 0.15 | – | –
56 | SQHGSGSGHSSGYGQHGSR [HR 1-1] | – | – | > 300 | > 300
57 | SRQSPSYGRHGSGR [HR 2-15] | – | – | > 300 | 75
58 | SRQSPSYGRHGSGSGR [HR 2-13] | – | – | > 300 | > 300
59 | SSSRGPY [HR 1-10] | – | – | > 300 | > 300
60 | SSSSR [HR 1-9] | – | – | > 300 | –
61 | TAGRRGSGH [FLG-22097-2105] | > 300 | > 300 | – | –
62 | THEHEQSHQRRDRQTHEDKQNRQR [RPTN747-770] | 0.3 | 150 | – | –
